Data from patent publication US11149029B2, “Salts of IJAK inhibitors and methods of using the same” (AstraZeneca AB, priority 2018, dated 2021).
Several values for one entry are separate records, joined by “and”; a condition that tells them apart may be missing. Equal values may be shown once. Where a name gives a salt, the structure may show the parent alone.

Legend:
[1] = Gravimetric vapor sorption analysis (GVS), water absorption 0-80% relative humidity; assay type: physicochemical; settings: for Water absorption 0-80% RH (% w/w): gravimetric vapor sorption
[2] = Weight loss on heating from room temperature to 120° C.; assay type: physicochemical; settings: heating from room temperature (RT) to 120° C.
Description: From the crystal structure (performed using single crystal X-ray diffraction, SXRD) of the free base compound of Formula (Ia), it was determined that the form was a non-stoichiometric hydrate.
Accordingly, a salt screen was performed and out of 20 counter ions tested, three salts (phosphoric, sulfuric and xinafoic salt) were scaled up (5 g) and further analysis was performed. […] (sulfuric salt) and 5.4% w/w RT−120° C. (phosphoric salt).
Screening was performed at Almac including over 110 solvent and non-solvent based screening experiments.

[3] = listed as free base compound of Formula (Ia)

| SMILES | Hygroscopicity (in words) [1] | Water absorption 0-80% RH (% w/w) [1] [% w/w] | Water absorption 0-80% RH (% w/w) [1, 3] | Weight loss RT-120° C. (% w/w) [2] [% w/w] | Weight loss RT-120° C. (% w/w) [2, 3] [% w/w] | Water absorption 0-80% RH (% w/w) ([1]; listed as xinafoate salt) | Weight loss RT-120° C. (% w/w) ([2]; listed as xinafoate salt) |
| --- | --- | --- | --- | --- | --- | --- | --- |
| COC[C@H](C(=O)Nc1cccc2c(-c3nc(Nc4cccc(S(C)(=O)=O)c4F)ncc3F)c[nH]c12)N1CCN(C)CC1 [Free base compound of Formula (Ia), (R)—N-(3-(5-fluoro-2-(2-fluoro-3-(methylsulfonyl)phenylamino)pyrimidin-4-yl)-1H-indol-7-yl)-3-methoxy-2-(4-methylpiperazin-1-yl)propanamide] | slightly hygroscopic | ~1.7 | 2 % w/w and 1.7 % w/w | ~5 | 5 | – | – |
| COC[C@H](C(=O)Nc1cccc2c(-c3nc(Nc4cccc(S(C)(=O)=O)c4F)ncc3F)c[nH]c12)N1CCN(C)CC1 [Xinafoate salt of compound of Formula (Ia)] [4-{(2R)-1-[(3-{5-fluoro-2-[2-fluoro-3-(methanesulfonyl)anilino]pyrimidin-4-yl}-1H-indol-7-yl)amino]-3-methoxy-1-oxopropan-2-yl}-1-methylpiperazin-1-ium; 1-hydroxynaphthalene-2-carboxylate] | non-hygroscopic | ~0.2 | – | ~0.2 | – | 0.2 | 0.2 |
